Source: patent US6479487B1, “6, 9-disubstituted 2-[trans-(4-aminocyclohexyl)amino] purines” (Aventis Pharmaceuticals Inc., priority 1998, dated 2002)
Values joined by “and” are separate entries in the source; they are usually repeats but may differ in a detail not shown here. Equal values may be shown once. Where a name gives a salt, the structure may show the parent alone. Read-outs that look alike come from different tables or passages of the source.

Assays:
DU145 = test: In vitro tumor cell proliferation, DU145; format: cell-based, human; settings: many values given with an undefined *, read-out: In vitro Tumor Cell Proliferation (IC50, μM) Prostate DU145
Protocol: (§1) The proliferation of tumor cells was measured using a sulforhodamine B assay as described in Skehan, P., et al., J. Natl. Cancer Inst. […] Tumor cells were harvested with trypsin-EDTA, cells that excluded trypan blue were counted, added to 96-well plates and incubated overnight at 37° C. Drug was added to the wells following dilution in culture medium. Three days later, the medium was removed and replenished with medium containing fresh drug and incubated an additional 4 days. The cells were then fixed with 0.1 ml 10% trichloroacetic acid for 60 min at 4° C. The plates were rinsed five times with tap water, air-dried and stained for 30 min with 0.4% sulforhodamine B in 1% acetic acid and air-dried.
(§2) Alternatively, the CyQUANT cell proliferation assay was used to quantitate cell proliferation.
(§3) Alternatively, the CyQUANT cell proliferation assay was used to quantify tumor cell proliferation. Tumor cells were harvested with trypsin-EDTA, cells that excluded trypan blue were counted, added to 96-well plates and incubated overnight at 37° C. Drug was added to the wells following dilution in culture medium. Three days later the medium was removed and the plates frozen at −80° C. for at least 30 minutes.

Colo-205 = test: In vitro tumor cell proliferation, Colo-205; format: cell-based; settings: values given with an undefined *, read-out: In vitro Tumor Cell Proliferation (IC50, μM) Colon Colo-205
Protocol: as §1, §2, §3

PC-3 = test: In vitro tumor cell proliferation, PC-3; format: cell-based, human; settings: many values given with an undefined *, read-out: In vitro Tumor Cell Proliferation (IC50, μM) Prostate PC-3
Protocol: as §1, §2, §3

MDA-MB-231 = test: In vitro tumor cell proliferation, MDA-MB-231; format: cell-based, human; settings: sulforhodamine B or CyQUANT assay, many values given with an undefined *, read-out: In vitro Tumor Cell Proliferation (IC50, μM) Breast MDA-MB-231
Protocol: as §1, §2, §3
MDA-MB-23 1 is a human breast adenocarcinoma, hormone-independent (HTB 26);

MDA-MB-435 = test: In vitro tumor cell proliferation, MDA-MB-435; format: cell-based; settings: values given with an undefined *, read-out: In vitro Tumor Cell Proliferation (IC50, μM) Breast MDA-MB-435
Protocol: as §1, §2, §3

A549 = test: In vitro tumor cell proliferation, A549; format: cell-based, human; settings: many values given with an undefined *, read-out: In vitro Tumor Cell Proliferation (IC50, μM) Lung A549
Protocol: as §1, §2, §3

cdk2/cyclin E = target: T1, cdk2/cyclin E (Homo sapiens, UniProt P24941); test: Cyclin-Dependent Kinase 2 Assay (cdk2/cyclin E, GST-Rb substrate); format: biochemical; settings: recombinant cdk2/cyclin E, 10 μM ATP, 30 min at 30° C., several values in a cell = separate determinations, read-out: CDK-2 Inhibition IC50
T1 construct: made in house; host or cells: insect cells (baculovirus co-infection)
Protocol: Substrate: GST-Rb as described above for cdk4/cyclin D1
Assay conditions for cdk2/cyclin E were identical to those for cdk4/cyclin D1 including the substrate. The concentration of recombinant cdk2/cyclin E in the assay was 0.1 μg per 100 μl assay. Incubation was for 30 min at 30° C.

cdk4/cyclin D1 = target: T2, cdk4/cyclin D1 (Homo sapiens, UniProt P11802); test: Cyclin-dependent Kinase 4 Assay (cdk4/cyclin D1, GST-Rb substrate); format: biochemical; settings: cdk4/cyclin D1 insect cell lysate, 10 μM ATP, 30 min at 37° C., several values = separate determinations, read-out: CDK4 Inhibition IC50
T2 construct: made in house; host or cells: Sf9 insect cells (Bac-to-Bac baculovirus, pFastBac)
T2 sequence (P11802 whole entry): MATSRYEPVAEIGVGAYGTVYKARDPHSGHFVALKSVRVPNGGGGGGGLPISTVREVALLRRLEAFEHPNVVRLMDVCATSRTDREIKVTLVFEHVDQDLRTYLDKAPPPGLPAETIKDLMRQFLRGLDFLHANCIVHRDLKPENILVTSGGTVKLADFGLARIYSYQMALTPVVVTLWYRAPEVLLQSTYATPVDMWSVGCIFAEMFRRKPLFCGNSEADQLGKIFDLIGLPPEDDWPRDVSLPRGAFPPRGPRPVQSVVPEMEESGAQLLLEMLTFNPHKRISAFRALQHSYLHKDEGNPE
T2 sequence (P24385 whole entry partner): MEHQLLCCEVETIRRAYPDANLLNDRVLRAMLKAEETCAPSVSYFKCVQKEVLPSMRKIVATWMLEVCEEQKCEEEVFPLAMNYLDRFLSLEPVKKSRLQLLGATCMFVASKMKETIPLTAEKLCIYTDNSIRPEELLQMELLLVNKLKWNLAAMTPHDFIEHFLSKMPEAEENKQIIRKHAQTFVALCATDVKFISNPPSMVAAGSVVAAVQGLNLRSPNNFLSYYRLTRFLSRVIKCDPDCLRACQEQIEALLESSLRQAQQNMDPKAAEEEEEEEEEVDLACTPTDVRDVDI
Protocol: The IC50 values for cdk4 inhibition were by the following method:
The transformed bacteria were grown overnight to saturation, then diluted in YT broth and incubated at 37° C. for 2 h. The protein was induced by incubation with 0.1 mM isopropylthioglycoside for 3 h. Following sedimentation by centrifugation, the cells were lysed by sonication in STE buffer ([…] NaCl, 10 mM Tris, pH 8.0, 1 mM EDTA) containing 10% sarkosyl. Particulate matter was removed by centrifugation and the lysate was incubated with glutathione-Sepharose at 4° C. The beads were washed with kinase buffer and then quantitation of Coomassie blue-stained proteins separated by SDS-PAGE was performed using a protein standard of known concentration.
The cDNA for human cyclin D1 was cloned by RT PCR using […] from MCF-7 cells. […] Bacmid DNA was used to transfect Sf9 insect cells to produce recombinant virus. Following plaque purification of the virus, the viral preparations were amplified until high titer stocks were acheived.
Lysates were prepared by lysis of Sf9 cells coinfected with cdk4 and cyclin D1 in 50 mM HEPES, pH 7.5, 10 mM MgCl2, 1 mM DTT, 0.1 mM phenylmethylsulfonyl fluoride, 5 μg/ml aprotinin, and 5 μg/ml leupeptin using a PARR bomb under 500 p.s.i nitrogen pressure for 5 min at 4° C. Insoluble material was sedimented at 10,000×g for 20 min at 4° C. Glycerol was added to the supernatant to 10% and stored at −80° C. in aliquots.
Pre-wet Millipore Multiscreen 96-well filter plates (0.65 μm Durapore filters) with 200 μl kinase buffer (50 mM HEPES, pH 7.5, 10 mM MgCl2, 1 mM EGTA). GST-Rb (0.5 μg) bound to glutathione-Sepharose beads is added in 50 μl per well and the solution removed by application of vacuum. […] Add 0.1 μg cdk4/cyclin D1 (insect cell lysate) to initiate assay. Incubate 30 min at 37° C. Terminate reaction by filtration on Millipore Vacuum Manifold. Wash four times with TNEN (20 mM Tris, pH 8.0, 100 mM Na Cl, 1 mM EDTA, 0.5% nonidet P-40). After drying the plates at room temperature, the filter plates were placed in adapter plates (Packard) and 40 μl of Microscint-O® (Packard) was added to each well. Top Seal A film was used to cover the plates before counting in a Top Count Scintillation Counter.

HT-29 = test: In vitro tumor cell proliferation, HT-29; format: cell-based, human; settings: many values given with an undefined *, read-out: In vitro Tumor Cell Proliferation (IC50, μM) Colon HT-29
Protocol: as §1, §2, §3
HT-29 is a human colon adenocarcinoma, moderately well-differentiated grade II (HTB 38);

DMS-114 = test: In vitro tumor cell proliferation, DMS-114; format: cell-based, human; settings: many values given with an undefined *, read-out: In vitro Tumor Cell Proliferation (IC50, μM) Lung DMS-114
Protocol: DMS-1 14: human small cell lung carcinoma;
as §1, §2, §3

[1] = Homo sapiens, COLO 205, Colo-205
[2] = Homo sapiens, MDA-MB-231, MDA-MB-231
[3] = Homo sapiens, MDA-MB-435, MDA-MB-435

| IC50 (DU145; Homo sapiens, DU-145, DU145) [µM] | IC50 (Colo-205; Colo-205, dihydrochloride) [µM] | IC50 (Colo-205; [1]) [µM] | IC50 (PC-3; Homo sapiens, PC-3, PC-3) [µM] | IC50 (PC-3; PC-3, dihydrochloride) [µM] | IC50 (MDA-MB-231; [2]) [µM] | IC50 (MDA-MB-231; MDA-MB-231, dihydrochloride) [µM] | IC50 (MDA-MB-435; [3]) [µM] | IC50 (MDA-MB-435; MDA-MB-435, dihydrochloride) [µM] | IC50 (A549; A549, dihydrochloride) [µM] | IC50 (A549; Homo sapiens, A549, A549) [µM] | IC50 (cdk2/cyclin E) | IC50 (cdk4/cyclin D1) | IC50 (HT-29; HT-29, dihydrochloride) [µM] | IC50 (HT-29; Homo sapiens, HT-29, HT-29) [µM] | IC50 (DMS-114; DMS-114, dihydrochloride) [µM] | IC50 (DMS-114; Homo sapiens, DMS-114, DMS-114) [µM] | Compound | other results |
| --- | --- | --- | --- | --- | --- | --- | --- | --- | --- | --- | --- | --- | --- | --- | --- | --- | --- | --- |
| 3.1 | 3.5 | 5.7 | 3.2 | 2.3 | 5.1 | 3.2 | 5.6 | 6 | 2.6 | 2.7 | 268 nM | 5700 nM and 6100 nM | 2 | 2.8 |  |  | N[C@H]1CC[C@H](Nc2nc(NNc3ccc(Cl)cc3Cl)c3ncn(C4CCCC4)c3n2)CC1 [Example 147, 2-[Trans-(4-aminocyclohexyl)amino]-6-(2,4-dichlorophenylhydrazino)-9-cyclopentylpurine dihydrochloride] | IC50 (DU145; DU145, dihydrochloride): 5.7 µM |
|  | 5.3 | 3.9 | 2.5 | 2.3 | 4.2 | 8.2 | 10 | 11 |  |  | 370 nM | 400 nM and 1300 nM and 570 nM | 4.4 | 4 | 2.8 | 2.7 | COCCCNc1nc(N[C@H]2CC[C@H](N)CC2)nc2c1ncn2C1CCCC1 [Example 22, 2-[Trans-(4-aminocyclohexyl)amino]-6-(3-methoxypropylamino)-9-cyclopentylpurine dihydrochloride] |  |
| 0.39 | 1.2 | 0.82 |  |  | 0.85 | 0.68 | 1.59 | 1.39 | 0.68 | 0.37 | 54 nM and 25 nM and 27 nM and 14 nM | 1300 nM and 1600 nM | 1.1 | 1 | 0.51 | 0.61 | N[C@H]1CC[C@H](Nc2nc(Nc3ccccc3)c3ncn(C4CCCC4)c3n2)CC1 [Example 32, 2-[Trans-(4-aminocyclohexyl)amino]-6-(phenylamino)-9-cyclopentylpurine dihydrochloride] | IC50 (DU145; DU145, dihydrochloride): 0.64 µM |
| 0.3 |  | 0.28 |  |  | 0.37 |  | 0.33 |  |  | 0.25 | 150 nM and 200 nM | 3900 nM and 7700 nM |  |  |  | 0.43 | N[C@H]1CC[C@H](Nc2nc(NC3CCN(Cc4ccccc4Cl)CC3)c3ncn(C4CCCC4)c3n2)CC1 [Example 43, 2-[Trans-(4-aminocyclohexyl)amino]-6-[4-(1-(2-chlorobenzyl))piperidinylamino]-9-cyclopentylpurine] | IC50 (DU145; DU145): 0.32 µM; IC50 (Colo-205; Colo-205): 0.23 µM; IC50 (MDA-MB-231; MDA-MB-231): 0.43 µM; IC50 (MDA-MB-435; MDA-MB-435): 0.57 µM; IC50 (A549; A549): 0.23 µM; IC50 (DMS-114; DMS-114): 0.41 µM |
|  | 4.6 | 4.9 | 2.6 | 3 | 10 | 6 | 9.3 | 7.2 | 1.6 | 3.1 | 130 nM | 1400 nM | 5.2 | 3.8 |  | 2.1 | COc1cccc(CCNc2nc(N[C@H]3CC[C@H](N)CC3)nc3c2ncn3C2CCCC2)c1 [Example 27, 2-[Trans-(4-aminocyclohexyl)amino]-6-[2-(3-methoxyphenyl)ethylamino]-9-cyclopentylpurine dihydrochloride] |  |
|  | 15 |  | 15 | 8 |  |  | 23 | 22 | 17 |  | 110 nM | 530 nM and 520 nM | 22 |  | 15 | 17 | N[C@H]1CC[C@H](Nc2nc(NCCOCCO)c3ncn(C4CCCC4)c3n2)CC1 [Example 26, 2-[Trans-(4-aminocyclohexyl)amino]-6-(2-hydroxyethoxyethylamino)-9-cyclopentylpurine dihydrochloride] |  |
|  | 10 | 12 |  |  | 15 |  | 20 |  |  | 22 | 540 nM | 20000 nM |  |  | 15 | 12 | COc1ccc(CNc2nc(N[C@H]3CC[C@H](N)CC3)nc3c2ncn3C(C)C)cc1OC [Example 19, 2-[Trans-(4-aminocyclohexyl)amino]-6-[(3.4-dimethoxybenzyl)amino]-9-(2-propyl)purine dihydrochloride] |  |
